Experimental data as given in patent publication US20070071727A1, “Melanocytes in therapy of neurodegenerative diseases” (priority 2003, published 2007).

Key:
[1] = system: Parkinson's melanocytes and normal adult control melanocytes; test: short time exposure (24 h), DNA synthesis by 3HdT incorporation and scintillation counts; assay type: cell-based, human; conditions: 24 h exposure; 0.5 μg/ml to 5.0 μg/ml
[2] = system: control melanocytes; assay type: cell-based, human; conditions: 10 days exposure; only at the highest concentration step 5.0 μg/ml

SMILES | difference in vulnerability between Parkinson's melanocytes and normal adult control melanocytes (DNA synthesis, 3HdT incorporation) [1] | impact on the growth of the control melanocytes [2]
CCCCC[C@H](O)/C=C/[C@H]1C(=O)C=C[C@@H]1C/C=C\CCCC(=O)O [PGJ2] | no significant different in vulnerability | negative impact on the growth
CCCCC[C@H](O)/C=C/[C@@H]1[C@@H](C/C=C\CCCC(=O)O)[C@@H](O)C[C@H]1O [PGF2a] | no significant different in vulnerability | –
CCCCC[C@H](O)/C=C/[C@H]1[C@H](O)CC(=O)[C@@H]1C/C=C\CCCC(=O)O [PGE2] | no significant different in vulnerability | –
CCCCC[C@H](O)/C=C/[C@H]1C=CC(=O)[C@@H]1C/C=C\CCCC(=O)O [PGA2] | no significant different in vulnerability | negative impact on the growth
